Data from paper PMC10447463, “Data-mining unveils structure–property–activity correlation of viral infectivity enhancing self-assembling peptides” (Nature Communications, 2023).
Read-outs that look alike come from different tables or passages of the source.

How the values were obtained:
[1] = format: physicochemical; conditions: STD prep
[2] = test system: HIV-1 infection of TZM-bl cells; test: HIV-1 infectivity enhancement assay, β-galactosidase luminescence; format: cell-based; conditions: for Log10 Inf. rel. to EF-C: log10 of HIV-1 infection of TZM-bl cells relative to EF-C, Fig S15 source data, asymmetric std dev errors; for Rel-to EFC / n-fold to virus: Fig S8 panels B, D; for Rel-to EFC: infectivity enhancement relative to EF-C
[3] = format: physicochemical; conditions: for Tht category (> 1.5 to blank = +): category 1/0
In short: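 Preformed peptide fibrils (1 mg/mL) mixed with 50 µM ThT in PBS, 15 min at RT, fluorescence ex 440/em 488 nm versus PBS blank, triplicates. Zeta potential: peptides at 1 mg/mL in PBS pH 7.4, aged 1 d at RT, diluted in 1 mM KCl, Smoluchowski from electrophoretic mobility.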

[4] = Feb2021, Log10 of infectivity relative to EF-C
[5] = Feb2021, figures match the 1.3 µM column
[6] = Feb2021, infectivity relative to virus only
[7] = Feb2021, n-fold enhancement relative to EF-C
[8] = Feb2021, n-fold infectivity relative to EF-C
[9] = infectivity class (low / medium / high) of each library peptide, main list in c1-c6, same classes repeated in sub-lists of sequences containing the hydrophobicity/charge patterns P+,H0,P+,H0,P0,H0,P0, P+,H0,P0,H0,P0,H0,P0, P+,H0,P0,H0
[10] = infectivity class (low / medium / high) of the peptide in the sequence-pattern analysis, Fig. S22-A4, class limits not given
[11] = ThT fluorescence relative to blank (42.1851851851852 a.u.)
[12] = ThT fluorescence relative to blank, blank = 42.1851851851852
[13] = Feb2021 run, infectivity n-fold relative to virus alone
[14] = Feb2021 run, log10 of infectivity relative to EF-C
[15] = Feb2021 run, n-fold infectivity relative to EF-C
[16] = relative to blank 42.1851851851852 a.u.
[17] = Feb2021, 1.3 µM value relative to virus only (0 µM)
[18] = Feb2021, log10 of infectivity relative to EF-C
[19] = Feb2021, unrounded values of the 1.3 µM column
[20] = infectivity n-fold relative to virus alone

Row | Substance | TEM: 1= fibrils, 0= aggregates (micelle), 0.5 = aggregates and fibrils, -1 = nothing obersved, STD prep [1] | Log10 of Rel to EFC (Feb2021) [2, 4] | Rel-to EFC (Feb-2021) [2, 7] | Rel-to EFC (Feb-2021) [2, 8] | infectivity [2, 9] | Log10 Inf. rel. to EF-C [2] | Tht rel to blank (42.1851851851852) [3, 11] | Tht category (> 1.5 to blank = +) [3] | n-fold to virus (Feb2021) [2, 13] | Log10 of Rel to EFC (Feb2021) [2, 14] | Rel-to EFC (Feb-2021) [2, 15] | Tht rel to blank (42.1851851851852) [3, 16] | n-fold to virus (Feb2021) [2, 17] | Absolute Infectivity / RLU /s (Feb2021) [2, 19] | other results
1 | KIKIKIQI [TG13] | 1 | -1.014 | 0.09675 | 0.09675 | low | -1.014 | 2.036 | 1 (ThT. Cat is 1, if Rel. ThT >2) | – | – | – | – | – | – | Absolute Infectivity / RLU /s (Feb2021) [2, 5]: 2073 RLU /s; n-fold to virus (Feb2021) [2, 6]: 4.065; infectivity [2, 10]: low; Tht rel to blank (42.1851851851852) [3, 12]: 2.036
2 | KIKIQINMW [JGB1 /TM85] | 1 | 0.3339 | 2.157 | – | high | 0.3339 | 4.61 | 1 (ThT. Cat is 1, if Rel. ThT >2) | 90.64 | 0.3339 | 2.157 | 4.61 | – | – | infectivity [2, 10]: high
3 | KWKWQW [KB3] | 0 | – | – | 0.01453 | low | -1.838 | – | 0 (ThT-inactive (N-Fold <2)) | – | – | – | 1.518 | 0.6105 | 386.7 RLU /s | Log10 of Rel to EFC (Feb2021) [2, 18]: -1.838; Rel-to EFC [2]: 0.01453; n-fold to virus [2, 20]: 0.6105
4 | MKIKIQINM [TM41] | 1 | – | – | 0.2732 | medium | -0.5635 | – | 0 (ThT-inactive (N-Fold <2)) | – | – | – | 1.327 | 11.48 | 15000 RLU /s | Log10 of Rel to EFC (Feb2021) [2, 18]: -0.5635
5 | MKIKIQINMWQ [TM52] | 1 | -0.378 | 0.4188 | 0.4188 | medium | -0.378 | 4.061 | 1 (ThT. Cat is 1, if Rel. ThT >2) | 17.6 | -0.378 | 0.4188 | 4.061 | 17.6 | 12786.66667 RLU /s | –
6 | QCKAKAQA [CK24] | 0.5 | -1.598 | 0.02526 | 0.02526 | low | -1.598 | 1.319 | 0 (ThT-inactive (N-Fold <2)) | 1.061 | -1.598 | 0.02526 | 1.319 | 1.061 | 806.7 RLU /s | Rel-to EFC [2]: 0.02526; n-fold to virus [2, 20]: 1.0614
7 | QCKAKAQANMWQ [CK22] | 0.5 | -1.144 | 0.07183 | 0.07183 | low | -1.144 | 1.496 | 0 (ThT-inactive (N-Fold <2)) | 3.018 | -1.144 | 0.07183 | 1.496 | 3.018 | 2767 RLU /s | –
8 | QCKFKFQF [CK9] | 1 | -0.1152 | 0.767 | 0.767 | – | -0.1152 | 2.014 | 1 (ThT. Cat is 1, if Rel. ThT >2) | 32.23 | -0.1152 | 0.767 | 2.014 | 32.23 | 20303.33333 RLU /s | infectivity [2, 10]: high
9 | QCKFKFQFNM [CK8] | 1 | -0.2906 | 0.5121 | 0.5121 | medium | -0.2906 | 2.317 | 1 (ThT. Cat is 1, if Rel. ThT >2) | 21.52 | -0.2906 | 0.5121 | 2.317 | 21.52 | 16353.33333 RLU /s | –
10 | QCKIKIQI [CK3] | 1 | -0.9508 | 0.112 | 0.112 | medium | -0.9508 | 2.039 | 1 (ThT. Cat is 1, if Rel. ThT >2) | 4.706 | -0.9508 | 0.112 | 2.039 | 4.706 | 3577 RLU /s | –
11 | QCKIKIQINM [CK2] | 1 | -0.4024 | 0.3959 | 0.3959 | medium | -0.4024 | 2.548 | 1 (ThT. Cat is 1, if Rel. ThT >2) | 16.64 | -0.4024 | 0.3959 | 2.548 | 16.64 | 15250 RLU /s | –
12 | QCKIKQII [CK6] | 1 | -2.189 | 0.006472 | 0.006472 | low | -2.189 | 2.961 | 1 (ThT. Cat is 1, if Rel. ThT >2) | 0.2719 | -2.189 | 0.006472 | 2.961 | – | – | Absolute Infectivity / RLU /s (Feb2021) [2, 5]: 206.7 RLU /s; n-fold to virus (Feb2021) [2, 6]: 0.2719; Tht rel to blank (42.1851851851852) [3, 12]: 2.961
